Data taken from ChEMBL document CHEMBL1201862, “PubChem BioAssay data set” (2004).
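1) Cells in 96-well plates. 2) Compound, 48 h, 5 concentrations. 3) Linear interpolation between surrounding doses. 4) Unreached endpoint = highest concentration. At the GI50, growth is halved.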 Activity calls are given as the source filed them. Rule as the data show it: active = GI50 up to about 1.1 µM and inactive = higher. Square brackets hold non-standard residues; d marks the D form. Peptide text beside a SMILES is read from it. 2Nal = N[CH](Cc1ccc2ccccc2c1)C(=O)O

What was measured:
Assay in all cases: NCI anticancer screen, dose series, 48 h
[1] = test system: DLD-1
[2] = test system: DMS-114
[3] = test system: KM-20L2
[4] = test system: HOP-18
[5] = test system: XF498
[6] = test system: SNB-78
[7] = test system: DMS-273
[8] = test system: LXFL 529
[9] = test system: RXF 631

| SMILES | GI50 [1] | GI50 [2] | GI50 [3] | GI50 [4] | GI50 [5] | GI50 [6] | GI50 [7] | GI50 [8] | GI50 [9] |
| --- | --- | --- | --- | --- | --- | --- | --- | --- | --- |
| COc1ccc2c(c1)OCCc1cn[nH]c1-2 | 36.7 µM (inactive) | 27.3 µM (inactive) | 54 µM (inactive) | 30.8 µM (inactive) | 29 µM (inactive) | 29.1 µM (inactive) | 32.2 µM (inactive) |  |  |
| O=C(CSc1nnc(Cc2ccccc2)o1)Nc1cccc([N+](=O)[O-])c1 | > 100 µM (inactive) | > 100 µM (inactive) | > 100 µM (inactive) | > 100 µM (inactive) |  | > 100 µM (inactive) | > 100 µM (inactive) | > 100 µM (inactive) |  |
| COc1cc(OC)c(C(=O)c2cccs2)cc1N | > 100 µM (inactive) | > 100 µM (inactive) | > 100 µM (inactive) | 23.7 µM (inactive) | > 100 µM (inactive) | > 100 µM (inactive) | > 100 µM (inactive) | > 100 µM (inactive) | > 100 µM (inactive) |
| CCOc1ccc(NCC(=O)N2CC(=O)Nc3ccccc32)cc1 | > 100 µM (inactive) |  | > 100 µM (inactive) | > 100 µM (inactive) | > 100 µM (inactive) | > 100 µM (inactive) | > 100 µM (inactive) | > 100 µM (inactive) |  |
| COc1cc(NC(C)=O)c2[nH]c3c(C)cc(NC(C)=O)c(C)c3c2c1 | > 100 µM (inactive) | > 100 µM (inactive) | > 100 µM (inactive) | > 100 µM (inactive) | > 100 µM (inactive) |  | > 100 µM (inactive) | > 100 µM (inactive) |  |
| C/C(CC(=O)Nc1ccc(Cl)cc1)=N\NC(=O)C[n+]1ccccc1 | > 100 µM (inactive) | > 100 µM (inactive) | > 100 µM (inactive) |  | > 100 µM (inactive) | > 100 µM (inactive) | > 100 µM (inactive) | > 100 µM (inactive) | > 100 µM (inactive) |
| NCCNc1ccc(NCCN)c2c1C(=O)c1c(O)ccc(O)c1C2=O | 0.0336 µM (active) | < 0.001 µM (active) | 0.0181 µM (active) | 0.361 µM (active) | < 0.001 µM (active) | 0.207 µM (active) | < 0.001 µM (active) | 0.00807 µM (active) | < 0.001 µM (active) |
| C/C(=C/C(=O)Nc1ccccc1)Nc1onc(C)c1C | > 100 µM (inactive) | > 100 µM (inactive) | > 100 µM (inactive) | > 100 µM (inactive) | > 100 µM (inactive) | > 100 µM (inactive) | > 100 µM (inactive) |  |  |
| CCOC(=O)C1(C#N)C(c2ccccc2)CC(O)(c2ccc([N+](=O)[O-])cc2)C(C(=O)c2ccc([N+](=O)[O-])cc2)C1c1ccccc1 (stereo unspecified) | > 100 µM (inactive) | > 100 µM (inactive) | > 100 µM (inactive) | 29.9 µM (inactive) | > 100 µM (inactive) | > 100 µM (inactive) | > 100 µM (inactive) | > 100 µM (inactive) |  |
| Cc1cc(NS(=O)(=O)c2ccc(NC(=O)COC(=O)c3cccc4c(=O)c5ccccc5[nH]c34)cc2)no1 | > 100 µM (inactive) | > 100 µM (inactive) | > 100 µM (inactive) |  | > 100 µM (inactive) | > 100 µM (inactive) | > 100 µM (inactive) | > 100 µM (inactive) |  |
| COC(=O)C(CC(C)C)NC(=O)NC12CC3CC(CC(F)(C3)C1)C2 (stereo unspecified) | > 100 µM (inactive) | > 100 µM (inactive) | > 100 µM (inactive) |  |  | > 100 µM (inactive) |  | > 100 µM (inactive) | > 100 µM (inactive) |
| Cc1c(C)c2cc3c(=O)c(CCl)coc3c(C)c2oc1=O |  | > 100 µM (inactive) | > 100 µM (inactive) | > 100 µM (inactive) |  | > 100 µM (inactive) |  | > 100 µM (inactive) | > 100 µM (inactive) |
| CSc1nc2c(ncn2C2OC(CO)C(O)C(O)C2O)c(=O)[nH]1 (stereo unspecified) | > 100 µM (inactive) | > 100 µM (inactive) | > 100 µM (inactive) | > 100 µM (inactive) | > 100 µM (inactive) | > 100 µM (inactive) | > 100 µM (inactive) |  |  |
| CC(=O)OC1CC2OC(Cc3ccccc32)O1 (stereo unspecified) | 64.1 µM (inactive) | > 100 µM (inactive) | > 100 µM (inactive) | 32.8 µM (inactive) | > 100 µM (inactive) | > 100 µM (inactive) | > 100 µM (inactive) | > 100 µM (inactive) |  |
| COC(=O)C(Cc1nc2ccc(Cl)cc2nc1O)/C(=N/O)C(=O)Nc1cccc(Cl)c1C (stereo unspecified) | > 100 µM (inactive) | > 100 µM (inactive) | > 100 µM (inactive) | > 100 µM (inactive) | > 100 µM (inactive) | > 100 µM (inactive) | > 100 µM (inactive) | > 100 µM (inactive) |  |
| O=C1NC2OC(C(O)CO)C(O)C2O1 (stereo unspecified) |  | > 100 µM (inactive) | > 100 µM (inactive) | > 100 µM (inactive) | > 100 µM (inactive) |  | > 100 µM (inactive) | > 100 µM (inactive) |  |
| CC(C)c1cccc(C(C)C)c1NC(=S)Nc1ccccc1 | > 100 µM (inactive) | 43 µM (inactive) | > 100 µM (inactive) | > 100 µM (inactive) | 0.434 µM (active) | > 100 µM (inactive) | > 100 µM (inactive) | > 100 µM (inactive) | > 100 µM (inactive) |
| Cc1ccccc1NC(=O)C(=O)CC(=O)c1ccc([N+](=O)[O-])cc1 | > 100 µM (inactive) | > 100 µM (inactive) | > 100 µM (inactive) | > 100 µM (inactive) | > 100 µM (inactive) | > 100 µM (inactive) | > 100 µM (inactive) | > 100 µM (inactive) | > 100 µM (inactive) |
| Cc1nc2ccc(NCCN(C)C)c3c(=O)c4cc(O)ccc4n1c23 | 0.148 µM (active) | 0.885 µM (active) |  |  | 1.56 µM (inactive) |  | 0.189 µM (active) | 0.752 µM (active) | 0.0355 µM (active) |
| CCOC(=O)CC1=CSC2=NCCN12 | > 100 µM (inactive) | > 100 µM (inactive) | > 100 µM (inactive) | > 100 µM (inactive) | > 100 µM (inactive) | > 100 µM (inactive) | > 100 µM (inactive) | > 100 µM (inactive) | > 100 µM (inactive) |
| COc1cc2c(c(OC)c1OC)-c1ccc(SC)c(=O)cc1[C@@H](NCc1ccc(C#N)cc1)CC2 | 0.00348 µM (active) | 0.00236 µM (active) | 0.00194 µM (active) |  | 0.00321 µM (active) | 0.00531 µM (active) | 0.0034 µM (active) | 0.0053 µM (active) |  |
| CC(C)C(NC(=O)C(CCCCN)NC(=O)C(Cc1c[nH]c2ccccc12)NC(=O)C(Cc1ccc(O)cc1)NC(=O)C(CS)NC(=O)C(N)Cc1ccc2ccccc2c1)C(=O)NC(CS)C(=O)NC(C(N)=O)C(C)O (stereo unspecified) (H-[2Nal]CYWKVCT-NH2; configuration not given here) | > 100 µM (inactive) | > 100 µM (inactive) | > 100 µM (inactive) | > 100 µM (inactive) | > 100 µM (inactive) | 8.15 µM (inactive) | > 100 µM (inactive) | > 100 µM (inactive) | > 100 µM (inactive) |
